For one assay, the target named is T1, Human Factor XIIa (Homo sapiens, UniProt P00748).
T1 construct: purchased Enzyme Research Laboratories
T1 sequence (P00748 373-615 limits assumed): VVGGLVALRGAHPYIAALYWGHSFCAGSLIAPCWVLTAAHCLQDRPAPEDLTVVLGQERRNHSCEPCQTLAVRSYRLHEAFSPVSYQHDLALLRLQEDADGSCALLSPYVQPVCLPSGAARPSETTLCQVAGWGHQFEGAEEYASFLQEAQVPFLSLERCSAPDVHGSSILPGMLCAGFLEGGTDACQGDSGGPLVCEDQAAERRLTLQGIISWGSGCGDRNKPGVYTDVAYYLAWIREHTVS
As to the kind of experiment: Factor XIIa inhibitory activity in vitro (fluorogenic substrate H-DPro-Phe-Arg-AFC). Format: biochemical. Particulars: 25° C., class symbols, read-out: Human FXIIa IC50. The method, boiled down: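 Enzyme incubated at 25° C with fluorogenic substrate H-DPro-Phe-Arg-AFC and a range of compound concentrations. Residual activity taken as initial reaction rate from […], giving IC50.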

The target of another assay is T2, Human FXIa (Homo sapiens, UniProt P03951).
T2 construct: Human FXIa (Enzyme Research Laboratories) was incubated; purchased Enzyme Research Laboratories
T2 sequence (P03951 388-625 limits assumed): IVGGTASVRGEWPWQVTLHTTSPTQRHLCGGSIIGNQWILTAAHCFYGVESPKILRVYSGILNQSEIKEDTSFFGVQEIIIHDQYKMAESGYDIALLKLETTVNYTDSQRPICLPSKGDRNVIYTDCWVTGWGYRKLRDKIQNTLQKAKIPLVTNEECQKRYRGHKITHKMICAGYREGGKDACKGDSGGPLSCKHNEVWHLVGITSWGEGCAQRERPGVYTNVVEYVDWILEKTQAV
T2 sequence (P03951 19-387 partner limits assumed): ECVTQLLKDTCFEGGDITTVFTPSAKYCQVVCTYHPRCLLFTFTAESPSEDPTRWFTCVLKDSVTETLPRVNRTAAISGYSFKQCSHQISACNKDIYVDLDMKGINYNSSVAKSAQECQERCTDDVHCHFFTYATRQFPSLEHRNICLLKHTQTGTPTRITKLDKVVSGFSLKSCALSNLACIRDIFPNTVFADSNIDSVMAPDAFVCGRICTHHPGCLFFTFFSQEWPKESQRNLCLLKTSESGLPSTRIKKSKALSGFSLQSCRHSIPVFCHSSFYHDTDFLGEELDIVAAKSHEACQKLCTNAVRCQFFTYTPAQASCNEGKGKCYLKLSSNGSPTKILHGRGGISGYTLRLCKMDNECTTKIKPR
As to the kind of experiment: FXIa inhibitory activity in vitro (fluorogenic substrate Z-Gly-Pro-Arg-AFC), selectivity. Format: biochemical. The following applies: category scale, 25° C. As for the experimental part:
Determination of the % Inhibition for FXIa
Human FXIa (Enzyme Research Laboratories) was incubated at 25° C. with the fluorogenic substrate Z-Gly-Pro-Arg-AFC and various concentrations of the test compound. Residual enzyme activity (initial rate of reaction) was determined by measuring the change in fluorescence at 410 nm and the IC50 value for the test compound was determined.

Molecules are shown by their SMILES. pIC50: −log10 of the molar value.

One may read the pIC50 as the negative decadic logarithm of the IC50, by convention in mol/L.

Turning to `N[C@H](CCCCN1CCc2ccccc21)C(=O)N1CC[C@H]1C(=O)NCc1ccc2[nH]cc(Cl)c2c1` [Example 10.14], the pIC50 is 4.40 to 5.00 at Human Factor XIIa and less than 4.40 on Human FXIa.

With `N[C@H](CCCCN1CCCC(F)(F)C1)C(=O)N1CC[C@H]1C(=O)NCc1ccc2[nH]cc(Cl)c2c1` [Example 10.15], the results for the pIC50 at Human Factor XIIa and on Human FXIa were 5.00 to 5.52 and less than 4.40, respectively.

Turning to `O=C(NCc1ccc2[nH]cc(Cl)c2c1)[C@@H]1CCN1C(=O)CCCCCN1CCCCC1` [Example 10.16], the pIC50 at Human Factor XIIa was 4.40 to 5.00; against Human FXIa it was less than 4.40.

Take `CC(C)N[C@H](COc1ccccc1)C(=O)N1CCC1C(=O)NCc1ccc2[nH]cc(Cl)c2c1` (stereo partly drawn) [Example 10.17]: the pIC50 on Human Factor XIIa and against Human FXIa was 4.40 to 5.00 in each case.

Regarding `CC(C)N[C@H](Cc1c[nH]c2ccccc12)C(=O)N1CC[C@H]1C(=O)NCc1ccc2[nH]cc(Cl)c2c1` [Example 10.18], the pIC50 at Human Factor XIIa and against Human FXIa was 4.40 to 5.00 in each case.

For `Nc1nccc2cc(CNC(=O)[C@H](Cc3ccc(F)c(F)c3)NC(=O)[C@H](N)CCCCN3CCCCC3)ccc12` [Example 12.01], the pIC50 at Human Factor XIIa was 7.00 to 7.52; against Human FXIa it was less than 4.40.

Take `CC(C)N[C@H](CCCCN1CCCCC1)C(=O)N[C@@H](C)C(=O)NCc1ccc2c(N)nccc2c1` [Example 12.02]: the figures for the pIC50 on Human Factor XIIa and at Human FXIa were 6.00 to 6.55 and 4.40 to 5.00, respectively.

Regarding `CC(C)N[C@H](CCCCN1CCCCC1)C(=O)N[C@@H](Cc1ccc(F)c(F)c1)C(=O)NCc1ccc2c(N)nccc2c1` [Example 12.03], the pIC50 is more than 7.52 at Human Factor XIIa and less than 4.40 at Human FXIa.

For `CC(C)N[C@H](CCCN1CCCCC1)C(=O)N[C@@H](Cc1ccc(F)c(F)c1)C(=O)NCc1ccc2c(N)nccc2c1` [Example 12.04], the pIC50 on Human Factor XIIa was 6.00 to 6.55; at Human FXIa it was 4.40 to 5.00.

With `CC(C)N[C@H](CCCCN1CCCCC1)C(=O)N[C@@H](Cc1c[nH]c2ccccc12)C(=O)NCc1ccc2c(N)nccc2c1` [Example 12.05], the pIC50 at Human Factor XIIa is 7.00 to 7.52; against Human FXIa, 5.00 to 5.52.

Regarding `CC(C)N[C@H](CCCCN1CCCCC1)C(=O)N[C@@H](Cc1cccc2ccccc12)C(=O)NCc1ccc2c(N)nccc2c1` [Example 12.06, (2R)—N-[(1S)-1-{[(1-Aminoisoquinolin-6-yl)methyl]carbamoyl}-2-(naphthalen-1-yl)ethyl]-2-(isopropylamino)-6-(piperidin-1-yl)hexanamide], the figures for the pIC50 on Human Factor XIIa and at Human FXIa were more than 7.52 and 5.00 to 5.52, respectively.

As for `CC(C)N[C@H](CCCCN1CCCCC1)C(=O)N[C@@H](Cc1csc2ccccc12)C(=O)NCc1ccc2c(N)nccc2c1` [Example 12.07], the pIC50 on Human Factor XIIa was more than 7.52; against Human FXIa it was 5.52 to 6.00.

With `CC(C)N[C@H](CCCCN1CCCCC1)C(=O)N[C@@H](Cc1ccc2ccccc2c1)C(=O)NCc1ccc2c(N)nccc2c1` [Example 12.08], the pIC50 at Human Factor XIIa is 5.52 to 6.00; at Human FXIa it was 4.40 to 5.00.

With `COc1ccc(C[C@H](NC(=O)[C@@H](CCCCN2CCCCC2)NC(C)C)C(=O)NCc2ccc3c(N)nccc3c2)cc1` [Example 12.09], the pIC50 on Human Factor XIIa was 5.52 to 6.00; at Human FXIa, less than 4.40.

As for `CC(C)N[C@H](CCCCN1CCCCC1)C(=O)N[C@@H](Cc1ccc(-c2ccccc2)cc1)C(=O)NCc1ccc2c(N)nccc2c1` [Example 12.10], the pIC50 on Human Factor XIIa was 5.00 to 5.52; at Human FXIa it was less than 4.40.

Turning to `Nc1nccc2cc(CNC(=O)[C@H](Cc3ccc(F)c(F)c3)NC(=O)CCCCCN3CCCCC3)ccc12` [Example 12.11], the pIC50 on Human Factor XIIa is 6.00 to 6.55; against Human FXIa, less than 4.40.

For `Nc1nccc2cc(CNC(=O)[C@@H]3CCN3C(=O)[C@H](N)CCc3ccccc3)ccc12` [Example 17.05], the figures for the pIC50 at Human Factor XIIa and at Human FXIa were 6.00 to 6.55 and 4.40 to 5.00, respectively.

On to `Nc1nccc2cc(CNC(=O)C3CC4CCC3N(C(=O)[C@H](N)CCc3ccccc3)C4)ccc12` (stereo partly drawn) [Example 17.06], for which the negative-log IC50 (pIC50) was 5.00 to 5.52 on Human Factor XIIa and 5.52 to 6.00 against Human FXIa.

On to `Nc1nccc2cc(CNC(=O)[C@H]3CCC[C@@H]3NC(=O)[C@H](N)CCc3ccccc3)ccc12` [Example 17.07], for which the values for the pIC50 on Human Factor XIIa and on Human FXIa were 4.40 to 5.00 and 5.00 to 5.52, respectively.

In the case of `CN[C@H](CCc1ccccc1)C(=O)N1CC[C@H]1C(=O)NCc1ccc2c(N)nccc2c1` [Example 17.08], the pIC50 at Human Factor XIIa is 6.00 to 6.55; against Human FXIa, less than 4.40.

`CC(C)N[C@H](CCc1ccccc1)C(=O)N1CC[C@H]1C(=O)NCc1ccc2c(N)nccc2c1` [Example 17.09, (2S)—N-[(1-aminoisoquinolin-6-yl)methyl]-1-[(2R)-2-(isopropylamino)-4-phenylbutanoyl]azetidine-2-carboxamide]: the pIC50 at Human Factor XIIa is 6.55 to 7.00; at Human FXIa it was 4.40 to 5.00.

As for `CC(C)N[C@H](CCCCN1CCCCC1)C(=O)N1CC[C@H]1C(=O)NCc1ccc2c(N)nccc2c1` [Example 17.10], the figures for the pIC50 at Human Factor XIIa and on Human FXIa were 6.00 to 6.55 and less than 4.40, respectively.

As for `CC(C)N[C@H](CCCN1CCCCC1)C(=O)N1CC[C@H]1C(=O)NCc1ccc2c(N)nccc2c1` [Example 17.11], the pIC50 on Human Factor XIIa is 6.00 to 6.55; at Human FXIa, less than 4.40.

As to `CC(C)(NS(=O)(=O)c1ccc2ccccc2c1)C(=O)NCc1ccc2c(N)nccc2c1` [Example 18.105], the pIC50 on Human Factor XIIa and against Human FXIa was 4.40 to 5.00 throughout.

Turning to `Nc1nccc2cc(CNC(=O)CNC(=O)c3ccc(N4CCOCC4)cc3)ccc12` [Example 18.106], the pIC50 is 4.40 to 5.00 on Human Factor XIIa and less than 4.40 at Human FXIa.

In the case of `Nc1nccc2cc(CNC(=O)CNC(=O)c3ccc4ccccc4n3)ccc12` [Example 18.107], the pIC50 was 4.40 to 5.00 on Human Factor XIIa and less than 4.40 against Human FXIa.

Take `Nc1nccc2cc(CNC(=O)CNC(=O)c3ccc(-c4ccncc4)cc3)ccc12` [Example 18.108]: the pIC50 was 4.40 to 5.00 at Human Factor XIIa and less than 4.40 on Human FXIa.

On to `Nc1nccc2cc(CNC(=O)CNC(=O)C(CCc3ccccc3)N3CCNCC3)ccc12` (stereo not drawn) [Example 18.109], for which the pIC50 on Human Factor XIIa is 4.40 to 5.00; at Human FXIa it was less than 4.40.

On to `CC(C)N[C@H](CCc1ccccc1)C(=O)N1CCC[C@H]1C(=O)NCc1cnc2[nH]cc(Cl)c2c1` [Example 27.01], for which the pIC50 on Human Factor XIIa is 6.00 to 6.55; at Human FXIa, less than 4.40.

As to `CC(C)N[C@H](CCCCN1CCCCC1)C(=O)N1CCC[C@H]1C(=O)NCc1cnc2[nH]cc(Cl)c2c1` [Example 27.02], the values for the pIC50 at Human Factor XIIa and against Human FXIa were 6.55 to 7.00 and 5.00 to 5.52, respectively.

On to `CC(C)N[C@H](CCCCN1CCCCC1)C(=O)N[C@@H](Cc1ccc(F)c(F)c1)C(=O)NCc1ccc2[nH]cc(Cl)c2c1` [Example 27.03], for which the pIC50 at Human Factor XIIa was more than 7.52; at Human FXIa, 4.40 to 5.00.

As to `CC(C)N[C@H](CCCCN1CCCCC1)C(=O)N[C@@H](Cc1ccc(F)c(F)c1)C(=O)NCc1cnc2[nH]cc(Cl)c2c1` [Example 27.04], the values for the pIC50 at Human Factor XIIa and at Human FXIa were 7.00 to 7.52 and less than 4.40, respectively.

`N[C@H](CCCCN1CCCCC1)C(=O)N[C@@H](Cc1ccc(F)c(F)c1)C(=O)NCc1cnc2[nH]cc(Cl)c2c1` [Example 27.06]: the values for the pIC50 at Human Factor XIIa and against Human FXIa were 7.00 to 7.52 and less than 4.40, respectively.

For `CC(C)N[C@H](CCCCN1CCCCC1)C(=O)N[C@@H](Cc1ccc(F)c(F)c1)C(=O)NCc1cccs1` [Example 27.07], the pIC50 on Human Factor XIIa is 5.00 to 5.52; at Human FXIa, less than 4.40.

As to `CC(C)N[C@H](CCc1ccccc1)C(=O)N1CC[C@H]1C(=O)NCc1cnc2[nH]cc(Cl)c2c1` [Example 27.08], the pIC50 was 6.00 to 6.55 on Human Factor XIIa and less than 4.40 against Human FXIa.

Regarding `C[C@@H]1CCC[C@H](C)N1CC(=O)N1CCC(C(=O)NCc2ccc3c(N)nccc3c2)C1` (stereo partly drawn) [Example 32.10], the pIC50 at Human Factor XIIa is 4.40 to 5.00; against Human FXIa it was less than 4.40.

Regarding `C[C@@H]1CCC[C@H](C)N1CC(=O)N1CC[C@H]1C(=O)NCc1ccc2c(N)nccc2c1` [Example 32.11], the pIC50 was 5.00 to 5.52 on Human Factor XIIa and 4.40 to 5.00 against Human FXIa.

As for `C[C@@H]1CCC[C@H](C)N1CC(=O)N1CC(C(=O)NCc2ccc3c(N)nccc3c2)C1` [Example 32.12], the results for the pIC50 at Human Factor XIIa and against Human FXIa were 4.40 to 5.00 and less than 4.40, respectively.

With `C[C@@H]1CCC[C@H](C)N1CC(=O)N1C[C@H]2[C@@H]([C@H]1C(=O)NCc1ccc3c(N)nccc3c1)C2(C)C` [Example 32.13], the pIC50 at Human Factor XIIa was 4.40 to 5.00; against Human FXIa, less than 4.40.

With `C[C@@H]1CCC[C@H](C)N1CC(=O)N1CC2CC(C(=O)NCc3ccc4c(N)nccc4c3)C1C2` (stereo partly drawn) [Example 32.14], the pIC50 at Human Factor XIIa was 4.40 to 5.00; at Human FXIa, less than 4.40.

On to `C[C@@H]1CCC[C@H](C)N1CC(=O)N[C@H]1CCC[C@@H]1C(=O)NCc1ccc2c(N)nccc2c1` [Example 32.15], for which the results for the pIC50 on Human Factor XIIa and at Human FXIa were 4.40 to 5.00 and less than 4.40, respectively.

For `C[C@@H]1CCC[C@H](C)N1CC(=O)NC1(C(=O)NCc2ccc3c(N)nccc3c2)CC1` [Example 39.09], the values for the negative logarithm of the IC50 (pIC50) on Human Factor XIIa and against Human FXIa were 5.00 to 5.52 and less than 4.40, respectively.

On to `C[C@@H]1CCC[C@H](C)N1CC(=O)NC1(C(=O)NCc2ccc3c(N)nccc3c2)CCC1` [Example 39.10], for which the pIC50 was 5.00 to 5.52 on Human Factor XIIa and 4.40 to 5.00 at Human FXIa.

Consider `C[C@@H]1CCC[C@H](C)N1CC(=O)NC1(C(=O)NCc2ccc3c(N)nccc3c2)CCOCC1` [Example 39.11], for which the pIC50 at Human Factor XIIa is 4.40 to 5.00; on Human FXIa, less than 4.40.

In the case of `CC(=O)N1C[C@H](c2ccccc2)C[C@H]1C(=O)NCc1ccc2c(N)nccc2c1` [Example 43.01], the pIC50 is 5.00 to 5.52 on Human Factor XIIa and less than 4.40 against Human FXIa.
